# Measured values from ChEMBL document CHEMBL1201862, “PubChem BioAssay data set” (2004).
# The source made the active and inactive calls.
# Experiments:
# Aminopeptidase N = biological target: T1, Aminopeptidase N (Plasmodium falciparum FcB1/Columbia, UniProt O96935); assay: P. falciparum M1AAP inhibitors, biochemical, fluorogenic H-Leu-NHMec substrate, 1536-well (AID 1445); set-up: species or system Plasmodium falciparum 3D7, 3D7
# T1 sequence (O96935 whole entry): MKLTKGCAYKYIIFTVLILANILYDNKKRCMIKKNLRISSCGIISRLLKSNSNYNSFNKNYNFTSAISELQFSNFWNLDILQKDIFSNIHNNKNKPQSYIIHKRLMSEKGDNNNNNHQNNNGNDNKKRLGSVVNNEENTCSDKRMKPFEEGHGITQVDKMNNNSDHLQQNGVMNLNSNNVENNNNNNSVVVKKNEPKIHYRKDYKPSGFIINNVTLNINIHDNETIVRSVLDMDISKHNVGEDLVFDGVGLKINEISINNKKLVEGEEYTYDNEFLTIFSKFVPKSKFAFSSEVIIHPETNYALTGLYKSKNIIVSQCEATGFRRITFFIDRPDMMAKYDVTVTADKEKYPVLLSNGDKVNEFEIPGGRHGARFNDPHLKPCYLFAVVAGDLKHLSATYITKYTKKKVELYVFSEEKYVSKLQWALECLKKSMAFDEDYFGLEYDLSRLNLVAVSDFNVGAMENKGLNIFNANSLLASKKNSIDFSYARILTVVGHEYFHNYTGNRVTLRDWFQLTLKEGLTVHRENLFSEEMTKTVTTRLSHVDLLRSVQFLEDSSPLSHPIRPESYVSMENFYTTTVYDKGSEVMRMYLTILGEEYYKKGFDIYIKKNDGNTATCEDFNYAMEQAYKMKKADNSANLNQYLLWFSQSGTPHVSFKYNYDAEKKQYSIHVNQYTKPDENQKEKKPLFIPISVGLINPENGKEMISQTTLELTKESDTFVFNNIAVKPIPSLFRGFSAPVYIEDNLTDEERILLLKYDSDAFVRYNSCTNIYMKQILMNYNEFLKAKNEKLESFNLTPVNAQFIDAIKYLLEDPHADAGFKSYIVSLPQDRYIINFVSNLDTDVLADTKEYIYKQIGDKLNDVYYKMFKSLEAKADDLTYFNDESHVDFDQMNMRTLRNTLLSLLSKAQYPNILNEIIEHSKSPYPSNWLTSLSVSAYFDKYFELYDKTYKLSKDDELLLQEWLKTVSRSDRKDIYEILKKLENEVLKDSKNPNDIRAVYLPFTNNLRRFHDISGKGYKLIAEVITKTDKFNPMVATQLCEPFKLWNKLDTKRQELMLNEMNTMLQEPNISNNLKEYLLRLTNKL
# [1] = NIH-3T3 fibroblast cytotoxicity, dose response, cytotoxicity control, cell-based, fluorescence, Alamar Blue, secondary assay (AID 2327); type: functional;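 further: NIH-3T3 mouse fibroblasts cultured with fluconazole at 8 µg/mL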
# [2] = HEp-2 cell cytotoxicity, dose response, cytotoxicity control for RSV inhibitor project, HTS (AID 2410); type: functional; details: human respiratory syncytial virus
# [3] = tested on: Streptococcus sp. 'group A'; assay: growth inhibition of control SK(-) GAS strain, dose response, counter-screen for streptokinase expression inhibitor project, luminescence, kanamycin, BacTiterGlo, confirmation (AID 1900); type: functional, organism-based
# cells [4] = type: functional, cell-based
# [5] = C. albicans growth with fluconazole, confirmation, fluorescence, retest (AID 2467); type: functional, cell-based
# cells [6] = type: functional, cell-based; remark: listed apart in the source
# Streptococcus = assay: Group A Streptococcus viability loss, dose response, counter-screen for streptokinase expression inhibitor project, luminescence, BacTiterGlo (AID 1915); type: functional, organism-based;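 further: potency for reduction of bacterial viability or growth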
# [7] = biological target: T2, Short transient receptor potential channel 4 (Mus musculus, UniProt Q9QUQ5); assay: mouse TRPC4 channel inhibitors, dose response, cell-based, HEK293 TRPC4/mu-opioid, Fluo-4 calcium (AID 434942); type: functional;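 further: potency of inhibitors blocking the TRPC4 calcium response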
# T2 sequence (Q9QUQ5 whole entry): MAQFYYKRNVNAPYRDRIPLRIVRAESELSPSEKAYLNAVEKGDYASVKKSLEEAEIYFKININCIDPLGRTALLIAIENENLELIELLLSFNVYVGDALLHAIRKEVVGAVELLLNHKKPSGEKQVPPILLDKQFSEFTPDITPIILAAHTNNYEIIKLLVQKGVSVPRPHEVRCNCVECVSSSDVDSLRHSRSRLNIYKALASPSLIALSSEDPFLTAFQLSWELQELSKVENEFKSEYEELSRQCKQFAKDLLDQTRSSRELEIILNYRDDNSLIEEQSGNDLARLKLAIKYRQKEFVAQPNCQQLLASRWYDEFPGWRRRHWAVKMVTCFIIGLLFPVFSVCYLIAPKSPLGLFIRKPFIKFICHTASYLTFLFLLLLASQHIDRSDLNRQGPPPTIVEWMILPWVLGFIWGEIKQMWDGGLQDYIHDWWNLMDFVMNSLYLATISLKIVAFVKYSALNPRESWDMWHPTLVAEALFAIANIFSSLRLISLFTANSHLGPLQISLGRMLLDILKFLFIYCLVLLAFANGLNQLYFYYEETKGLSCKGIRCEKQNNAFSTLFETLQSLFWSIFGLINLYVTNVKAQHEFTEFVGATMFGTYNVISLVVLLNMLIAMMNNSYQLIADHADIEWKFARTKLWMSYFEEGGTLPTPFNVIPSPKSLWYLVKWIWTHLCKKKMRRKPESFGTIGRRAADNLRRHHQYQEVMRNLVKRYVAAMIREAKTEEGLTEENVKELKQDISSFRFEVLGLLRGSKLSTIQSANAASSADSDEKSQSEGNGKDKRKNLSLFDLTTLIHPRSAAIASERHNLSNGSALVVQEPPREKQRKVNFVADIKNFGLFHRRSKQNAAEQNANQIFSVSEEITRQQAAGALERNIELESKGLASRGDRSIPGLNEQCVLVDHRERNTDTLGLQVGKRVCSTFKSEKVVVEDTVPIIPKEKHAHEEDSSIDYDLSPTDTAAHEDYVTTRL
# [8] = A Cell Based Secondary Assay To Explore Cytotoxicity of Compounds that Sensitize Mycobacterium Tuberculosis to Beta-Lactam Antibiotics.; type: functional
# Protein skinhead-1 = biological target: T3, Protein skinhead-1 (Caenorhabditis elegans, UniProt P34707); type: functional
# T3 sequence (P34707 whole entry): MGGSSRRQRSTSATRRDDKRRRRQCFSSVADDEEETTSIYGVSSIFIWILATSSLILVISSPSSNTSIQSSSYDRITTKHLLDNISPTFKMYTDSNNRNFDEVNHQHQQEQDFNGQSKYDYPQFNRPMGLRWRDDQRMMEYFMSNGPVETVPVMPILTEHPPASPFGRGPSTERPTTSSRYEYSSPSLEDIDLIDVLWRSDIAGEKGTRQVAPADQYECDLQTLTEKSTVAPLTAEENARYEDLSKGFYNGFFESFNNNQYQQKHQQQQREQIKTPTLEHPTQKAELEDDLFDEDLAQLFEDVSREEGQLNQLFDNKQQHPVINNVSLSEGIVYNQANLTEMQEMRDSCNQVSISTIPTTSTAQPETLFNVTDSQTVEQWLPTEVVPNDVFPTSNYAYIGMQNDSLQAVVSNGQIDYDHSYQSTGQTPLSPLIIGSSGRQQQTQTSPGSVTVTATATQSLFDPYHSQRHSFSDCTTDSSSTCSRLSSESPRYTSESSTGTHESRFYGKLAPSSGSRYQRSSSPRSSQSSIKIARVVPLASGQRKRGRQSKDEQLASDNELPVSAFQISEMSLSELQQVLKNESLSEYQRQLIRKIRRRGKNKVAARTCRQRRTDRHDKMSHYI
# [9] = biological target: T2, Short transient receptor potential channel 4; assay: mouse TRPC4 channel activators, dose response, cell-based, HEK293 TRPC4/mu-opioid, Fluo-4 calcium (AID 434937); type: functional
# [10] = biological target: T4, DNA repair protein RAD52 homolog (Homo sapiens, UniProt P43351); type: functional, biochemical
# T4 sequence (P43351 whole entry): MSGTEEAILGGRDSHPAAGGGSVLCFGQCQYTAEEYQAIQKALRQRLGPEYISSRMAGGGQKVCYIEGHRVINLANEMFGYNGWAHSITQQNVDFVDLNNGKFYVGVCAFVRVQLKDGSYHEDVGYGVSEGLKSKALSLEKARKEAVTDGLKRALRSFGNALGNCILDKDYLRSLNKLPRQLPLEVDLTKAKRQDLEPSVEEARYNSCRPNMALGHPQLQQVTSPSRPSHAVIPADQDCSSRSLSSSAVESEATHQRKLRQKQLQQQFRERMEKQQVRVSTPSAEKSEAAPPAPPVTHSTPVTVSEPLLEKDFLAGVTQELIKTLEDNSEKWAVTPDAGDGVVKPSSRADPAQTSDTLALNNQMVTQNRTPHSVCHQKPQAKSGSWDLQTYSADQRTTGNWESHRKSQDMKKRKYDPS
# [11] = biological target: T5, Replicative DNA helicase DnaB (Mycobacterium tuberculosis, UniProt P9WMR3); assay: DnaB intein splicing inhibitors, dose response, biochemical, cell-free fluorescence (AID 449749); type: functional
# T5 sequence (P9WMR3 whole entry): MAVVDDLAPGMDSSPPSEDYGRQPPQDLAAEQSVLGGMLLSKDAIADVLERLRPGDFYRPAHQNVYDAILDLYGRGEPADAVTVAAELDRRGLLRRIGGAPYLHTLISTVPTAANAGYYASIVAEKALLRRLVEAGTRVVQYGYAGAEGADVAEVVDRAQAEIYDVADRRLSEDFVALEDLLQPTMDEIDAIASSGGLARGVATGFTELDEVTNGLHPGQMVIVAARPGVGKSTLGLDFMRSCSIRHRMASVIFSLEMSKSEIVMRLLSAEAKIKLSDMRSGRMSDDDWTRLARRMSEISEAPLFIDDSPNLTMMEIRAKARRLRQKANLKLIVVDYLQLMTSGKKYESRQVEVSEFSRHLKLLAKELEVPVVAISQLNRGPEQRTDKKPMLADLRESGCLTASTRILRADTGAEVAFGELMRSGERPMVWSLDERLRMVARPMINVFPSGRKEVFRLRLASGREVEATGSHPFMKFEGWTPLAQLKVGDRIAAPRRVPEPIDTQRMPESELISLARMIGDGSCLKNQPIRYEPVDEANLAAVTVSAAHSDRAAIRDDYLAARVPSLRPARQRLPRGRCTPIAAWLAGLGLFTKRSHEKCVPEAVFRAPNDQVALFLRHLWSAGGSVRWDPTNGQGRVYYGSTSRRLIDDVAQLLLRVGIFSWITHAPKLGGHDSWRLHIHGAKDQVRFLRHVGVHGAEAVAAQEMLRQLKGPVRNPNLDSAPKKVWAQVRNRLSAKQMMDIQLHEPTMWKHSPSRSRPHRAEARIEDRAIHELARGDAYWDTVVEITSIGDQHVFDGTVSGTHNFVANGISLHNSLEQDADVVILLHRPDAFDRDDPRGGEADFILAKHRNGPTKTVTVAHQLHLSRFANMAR
# Protein RecA = biological target: T6, Protein RecA (Mycobacterium tuberculosis, UniProt P9WHJ3); assay: Fluorescence Cell-Free Homogeneous Dose Retest to Identify Inhibitors of RecA-Intein Splicing Activity. [Related pubchem assays (depositor defined):AID2097, AID2223, AID489010, AID492950]; type: functional
# T6 sequence (P9WHJ3 whole entry): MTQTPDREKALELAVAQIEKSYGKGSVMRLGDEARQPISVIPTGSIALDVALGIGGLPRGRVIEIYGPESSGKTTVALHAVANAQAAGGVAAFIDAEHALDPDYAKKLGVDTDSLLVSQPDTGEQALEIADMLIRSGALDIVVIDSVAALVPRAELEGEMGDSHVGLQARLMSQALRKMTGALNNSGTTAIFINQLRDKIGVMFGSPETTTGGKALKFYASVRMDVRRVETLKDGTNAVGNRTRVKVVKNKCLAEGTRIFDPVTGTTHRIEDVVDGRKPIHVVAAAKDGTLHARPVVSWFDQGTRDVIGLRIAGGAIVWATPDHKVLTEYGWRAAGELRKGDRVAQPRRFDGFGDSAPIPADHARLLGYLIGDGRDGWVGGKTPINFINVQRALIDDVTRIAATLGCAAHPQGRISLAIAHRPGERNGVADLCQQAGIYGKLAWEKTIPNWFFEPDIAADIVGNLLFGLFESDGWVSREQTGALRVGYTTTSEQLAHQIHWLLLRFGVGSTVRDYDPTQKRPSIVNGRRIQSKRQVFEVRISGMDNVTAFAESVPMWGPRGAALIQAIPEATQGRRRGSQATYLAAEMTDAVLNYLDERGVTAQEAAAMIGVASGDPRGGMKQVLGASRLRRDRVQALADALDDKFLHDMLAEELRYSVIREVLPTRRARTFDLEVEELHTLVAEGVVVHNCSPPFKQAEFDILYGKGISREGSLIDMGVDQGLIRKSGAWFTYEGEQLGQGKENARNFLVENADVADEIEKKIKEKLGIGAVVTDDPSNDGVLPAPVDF
structure (smiles),measurement,setting,value
O=C(O)c1ccc(NC(S)=NC(NC(=O)c2ccco2)C(Cl)(Cl)Cl)cc1 (centres undefined),IC50,Aminopeptidase N,60.5 µM (active)
O=Cc1cc(N=Nc2ccccc2Cl)ccc1O,EC50,[1],> 160 µM (inactive)
same,CC50,[2],7.07 µM (active)
same,EC50,[3],5.05 µM (active)
same,EC50,cells [4],198 µM (active)
same,EC50,[5],> 38 µM (not active)
same,EC50,cells [6],> 350 µM (not active)
same,EC50,Streptococcus,6.24 µM (active)
same,EC50,[7],15 µM (active)
C[C@H](NC(=O)c1[nH]cnc1C(=O)Nc1ccc(Cl)cc1)C(=O)OC(C)(C)C,CC50,[8],16.7 µM (active)
same,IC50,Protein skinhead-1,> 100 µM (inactive)
COc1ccc(-n2nc(C(=O)NCC(=O)NCCCN3CC(C)CC(C)C3)c3ccccc3c2=O)cc1Cl (centres undefined),EC50,[9],1.5 µM (active)
O=C(NC1CCN(Cc2ccccc2)CC1)C12CC3CC(CC(C3)C1)C2,EC50,[9],1.5 µM (active)
Cc1ccc(-c2csc(N(CCCN(C)C)C(=O)c3ccco3)n2)cc1,EC50,[7],2.11 µM (active)
same,AC50,[10],11.7 µM (active)
Cc1ccc(O)c(Sc2cc(C)ccc2O)c1,EC50,[7],3.76 µM (active)
CCC(C)NC(C(=O)Nc1ccc(Cl)c([N+](=O)[O-])c1)c1ccccc1 (centres undefined),EC50,[7],7.5 µM (active)
COC(=O)Cc1c(C)c2ccc(O)c(CN3CCCC(C)C3)c2oc1=O (centres undefined),IC50,Aminopeptidase N,30 µM (active)
Brc1ccc(CNc2ccc3ncccc3c2)cc1,CC50,[8],> 40 µM (active)
same,AC50,[11],> 380 µM (inactive)
same,EC50,Protein RecA,> 380 µM (inactive)
Cc1cc(=O)oc2cc3c(cc12)OCCN3,IC50,Aminopeptidase N,32.8 µM (active)
OC(CNC1CCCc2ccccc21)COc1ccc2ccccc2c1 (centres undefined),EC50,[9],5.96 µM (active)
Cc1c(O)c(CN2CCCC2)cc2c3c(c(=O)oc12)CCC3,IC50,Aminopeptidase N,42.6 µM (active)
